Assay results as given in patent US20240215575A1, “METHOD OF PREPARING 1-(2,2-DIMETHYLPROPYL)-CYCLOPROPENE AS SPRAYABLE ETHYLENE ANTAGONIST IN PLANTS AND USES THEREOF” (KYUNG SANG NAM DO, priority 2022, published 2024).
Values after ≈ are worked out from the molar mass of the structure shown. Read-outs that look alike come from different tables or passages of the source. Values belong to the molecule of their own block, whether it stands above or below them.

Tests used:
[1] = cited from earlier work
[2] = Storage stability of 1-DCP and its cyclodextrin inclusion complex; format: physicochemical
[3] = test system: banana fruits; test: 1-DCP immersion treatment of immature banana fruit followed by ethylene exposure; format: in vivo
Method: In particular, immature banana fruits were harvested from a banana farm in Sancheong-gun, Gyeongsangnam-do and transported to the laboratory, and on the same day, the fruits were separated into two groups: the fruits (16) in Group A (control group) were immersed in a 0.025% wetting agent (Carba, FarmHannong) solution not containing 1-DCP, and the fruits (16) in Group B (treatment group) were immersed in a 1 mM 1-DCP aqueous emulsion for 1 second, respectively, to wet the surface with the solution, and then dried at room temperature. Subsequently the next day, half of the fruits (8 each) from groups A and B were divided into two 40 L containers, sealed, and then injected with ethylene gas, thus exposing the fruits to 10 ppm of ethylene for 24 hours. The treated banana fruits were then stored at room temperature and observed for the degree of ripening after 7 days and after 14 days.

[4] = test system: Taechu sweet persimmon fruits; test: 1-DCP spray treatment of Taechu sweet persimmon fruits on the tree, flesh hardness during room temperature storage; format: in vivo, sweet persimmon (Taechu variety)
Method: In particular, four sweet persimmon trees of the Taechu variety were selected on October 7th at the Sweet Persimmon Research Institute Orchard located in Jinyeong-eup, Gyeongsangnam-do, and the fruits growing on two of these trees (control group) were treated with a solution containing 0.025% wetting agent (Carba, Farmhannong), and the fruits of the other two trees (treatment group) were sprayed with an aqueous emulsion containing 1 mM 1-DCP and 0.025% wetting agent using a manual sprayer. Fruits in each treatment group were harvested on October 24, and measured/observed for changes in flesh hardness after 7 days and 14 days while being stored at room temperature.

SMILES: OC[C@H]1O[C@@H]2O[C@H]3[C@H](O)[C@@H](O)[C@@H](O[C@H]4[C@H](O)[C@@H](O)[C@@H](O[C@H]5[C@H](O)[C@@H](O)[C@@H](O[C@H]6[C@H](O)[C@@H](O)[C@@H](O[C@H]7[C@H](O)[C@@H](O)[C@@H](O[C@H]8[C@H](O)[C@@H](O)[C@@H](O[C@H]1[C@H](O)[C@H]2O)O[C@@H]8CO)O[C@@H]7CO)O[C@@H]6CO)O[C@@H]5CO)O[C@@H]4CO)O[C@@H]3CO [β-cyclodextrin]
solubility in water ([1]; compared to the alpha type): extremely low solubility in water

SMILES: OC[C@H]1O[C@@H]2O[C@H]3[C@H](O)[C@@H](O)[C@@H](O[C@H]4[C@H](O)[C@@H](O)[C@@H](O[C@H]5[C@H](O)[C@@H](O)[C@@H](O[C@H]6[C@H](O)[C@@H](O)[C@@H](O[C@H]7[C@H](O)[C@@H](O)[C@@H](O[C@H]1[C@H](O)[C@H]2O)O[C@@H]7CO)O[C@@H]6CO)O[C@@H]5CO)O[C@@H]4CO)O[C@@H]3CO [a-cyclodextrin, α-cyclodextrin]
solubility in water [1]: 140 mg/mL (≈ 144 mM)

storage stability ([2]; stored in a −40° C. freezer): several months or more
SMILES: CC(C)(C)CC1=CC1 [1-DCP, 1-(2,2-dimethylpropyl)-cyclopropene]
storage stability (polymerization) ([2]; refrigerated conditions): polymerization occurred within a few days
storage stability ([2]; room temperature): storage at room temperature for more than one day was impossible
degree of ripening ([3]; 1 mM 1-DCP aqueous emulsion, immersion for 1 second, 10 ppm ethylene for 24 hours, room temperature storage, observed after 7 and 14 days): maintained a more immature state than the fruits of Group A up to 14 days
inhibition of ethylene action ([3]; immersion treatment, 1 mM or less, banana fruits): effectively inhibits ethylene action
flesh hardness ([4]; spray of 1 mM 1-DCP aqueous emulsion with 0.025% wetting agent, after 7 days of storage at room temperature): 19.5 N
inhibition of ethylene action ([4]; spray treatment, 1 mM or less, Taechu fruits): effectively inhibits ethylene action
